Assay [1] has as its target T1, dopamine (DA) D-2 receptor (Rattus norvegicus, UniProt P61169).
T1 construct: rat striatal membranes were used; from tissue; host or cells: rat striatum (membranes)
In words: Test A: antagonism of [^3 H]-spiperone binding (D-2 receptor binding assay, rat striatal membranes). As to conditions: 0.5 nM [^3 H] spiperone, 40 nM ketanserin, pH 7.7, 37° C., 15 min, typical values, read-out: IC50 (drug concentration which produced a 50% displacement of [^3 H] spiperone). The text has this: (§1) The compounds of Formula I are antagonists of dopamine D-2 receptors, and as such are predicted to be useful as antipsychotic drugs. D-2 antagonism can be shown by standard tests such as antagonism of [^3 H]-spiperone binding (Test A), and/or antagonism of apomorphine-induced climbing and apomorphine- induced disruption of swimming (Test B).
The receptor binding assay used to measure affinities of various compounds for the dopamine (DA) D-2 receptor subtype was that described by Saller and Salama in J Pharmacol Exp Ther 236, page 714, 1986.
Specifically, rat striatal membranes were used. Tissue membranes were prepared and washed once in 50 volumes of the appropriate Tris HCl buffer. For the D-2 receptor binding assay, striatal membranes were suspended to a final concentration of 8 mg/ml in 50 mM Tris HCl with 40 nM ketanserin, pH 7.7. Nonspecific binding to D-2 receptors was measured in the presence of 1.0 μM (+)-butaclamol. IC50 s (drug concentration which produced a 50% displacement) for the displacement of 0.5 nM [^3 H] spiperone were determined using at least five concentrations of each drug in triplicate. One-half milliliter of membrane suspension was incubated with the compound of interest or vehicle or nonspecific drug, ligand and appropriate Tris HCl buffer. The final reaction volume totaled 1 ml for each tube and was incubated at 37° C. for 15 min to facilitate binding and ensure equilibrium had been met. A Brandel filtering system equipped with GF/B filters was used to separate bound from free drug. The amount of drug bound to the membranes was assessed using liquid scintillation counting techniques. IC50 values were obtained from a least squares regression of a logit-log transformation of the data. Typical values in this test were, for example, 103 nM (nanomolar) for the compound of Example 6, 84 nM for the compound of Example 15, and 15 nM for the compound of Example 21.

Assay [2] concerns apomorphine-induced climbing and apomorphine-induced disruption of swimming. The experiment in a line: Test B: antagonism of apomorphine-induced climbing and apomorphine-induced disruption of swimming. Type of assay: in vivo. As to conditions: Mus musculus; oral, female Swiss-Webster mice, 30 min before apomorphine HCl 1.25 mg/kg sc; typical values; read-out: minimum effective dose (decrease in climbing score accompanied by increase in swimming score). As to the method: as §1
Female Swiss-Webster mice weighing approximately 20 g were deprived of food for approximately 24 h and then dosed orally with various doses of either the vehicle or test agent over a range of doses (N=20 mice per treatment group). Thirty minutes later they were dosed with apomorphine HCl at 1.25 mg/kg, sc, and placed into climbing cages. The climbing cages were 9 cm wide, 15 cm deep and 30 cm high. One wall had 27 horizontal rungs spaced 1 cm apart. Thirteen minutes after apomorphine each mouse was observed continuously for 1 min and the highest and lowest rung reached by its front paws was recorded. The mean of these two scores was used as the score for that mouse. (The highest and lowest scores were 27 and 0, respectively.) Immediately after the 1-min climbing observation period each mouse was placed into a circular swimming tank for 2 min and the number of swims was counted. The height of the tank was 15 cm and the diameter was 28 cm. A circular obstacle measuring 10.5 cm in diameter and having a height of 17 cm was placed into the center of the tank, creating a circular swimming channel 8.75 cm wide. The water level was 5.5 cm and the water was kept at room temperature. Marks were placed on the floor and side of the tank 180 degrees apart. A "swim" was scored each time a mouse swam from one mark to the other. The mice were observed through overhead mirrors and the number of 180 degree swims was recorded for each mouse. Activity in this test was indicated by a decrease in the climbing score accompanied by an increase in the swimming score at a given dose of the test compound. Typical values of minimum effective doses in this test were 10 mg/kg for the compound of Example 6 and 20 mg/kg for each of the compounds of Examples 15 and 21.

Molecules are shown by their SMILES.

T1 sequence (P61169 whole entry): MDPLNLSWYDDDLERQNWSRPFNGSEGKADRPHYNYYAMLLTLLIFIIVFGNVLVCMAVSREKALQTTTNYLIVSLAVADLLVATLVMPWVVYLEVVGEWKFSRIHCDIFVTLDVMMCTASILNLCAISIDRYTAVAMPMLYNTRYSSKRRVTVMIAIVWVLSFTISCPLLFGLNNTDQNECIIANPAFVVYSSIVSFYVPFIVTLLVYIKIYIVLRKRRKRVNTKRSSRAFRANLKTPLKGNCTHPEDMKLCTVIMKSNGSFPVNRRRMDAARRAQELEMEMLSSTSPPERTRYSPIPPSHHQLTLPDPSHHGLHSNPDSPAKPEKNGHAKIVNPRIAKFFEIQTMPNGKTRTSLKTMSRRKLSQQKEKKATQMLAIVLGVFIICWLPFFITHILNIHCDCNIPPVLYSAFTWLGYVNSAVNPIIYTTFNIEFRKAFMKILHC

`COc1ccc(C(O)C2CCN(CC34CC(c5ccccc53)c3ccc(Cl)cc34)CC2)cc1` (racemic) [Example 21, (R,S)-1-[1-((9RS, 10RS)-2-Chloro-9,10-dihydro-9,10-methanoanthracen-9-ylmethyl)-4-piperidyl]-1-(4-methoxyphenyl)methanol]: the IC50 in assay [1] was determined as 0.015 µM. Also, in assay [2], the minimal effective dose came out at 20 mg/kg.
For `COc1cccc(C(O)C2CCN(CC34CC(c5ccccc53)c3ccc(Cl)cc34)CC2)c1` (racemic) [Example 15, (R,S)-1-[1-((9RS,10RS)-2-Chloro-9,10-dihydro-9,10-methanoanthracen-9-ylmethyl)-4-piperidyl]-1-(3-methoxyphenyl)methanol] the same measures were 0.084 µM and 20 mg/kg.
In the case of `OC(c1cccnc1)C1CCN(CC23CC(c4ccccc42)c2ccccc23)CC1` (stereo not drawn) [Example 6, 1-[1-(9,10-Dihydro-9,10-methanoanthracen-9-ylmethyl)-4-piperidyl]-1-(3-pyridyl)methanol], the IC50 in assay [1] is 0.103 µM. Further, the minimal effective dose in assay [2] came out at 10 mg/kg.

The record behind these values is patent US5399568A, “Methanoanthrancenyl piperidyl antipsychotics” (Imperial Chemical Industries plc, priority 1991, dated 1995).
